Results as given in ChEMBL document CHEMBL1125803 (J Med Chem, 1991).
Numbered stars: 1 amine (or outer) side, 2 acyl side, 3 side chain; on linkers, the order of the positions; unused ones are H or OH. Square brackets hold non-standard residues; d marks the D form. Peptide text beside a SMILES is read from it. X1 = O=C([C@@H]1CCCN1CC(O)[C@H](Cc1ccccc1)N[*:1])[*:2]

What was measured:
[1] = target: T1, Human immunodeficiency virus type 1 protease (Human immunodeficiency virus 1, UniProt Q72874); experiment: (§1) Binding activity against HIV-1 Protease
[2] = target: T1, Human immunodeficiency virus type 1 protease; experiment: as §1; remark: listed apart in the source

## CC(C)(C)OC(=O)[C@@H]1CCCN1C[C@@H](O)[C@H](Cc1ccccc1)NC(=O)[C@H](CC(N)=O)NC(=O)OCc1ccccc1
[1]
  IC50: 140 nM
[2]
  IC50: 140 nM

## CC(C)(C)OC(=O)[C@@H]1CCCN1C[C@H](O)[C@H](Cc1ccccc1)NC(=O)[C@H](CC(N)=O)NC(=O)OCc1ccccc1
[1]
  IC50: 300 nM
[2]
  IC50: 300 nM

## CC(C)(C)NC(=O)C1CC2CCCCC2CN1C[C@H](O)[C@H](Cc1ccccc1)NC(=O)[C@H](CC(N)=O)NC(=O)OCc1ccccc1 (stereo partly drawn)
[1]
  IC50: > 100 nM
[2]
  IC50: > 100 nM

## CC[C@H](C)[C@H](NC(=O)[C@@H]1CCCN1CC(O)[C@H](Cc1ccccc1)NC(=O)[C@H](CC(N)=O)NC(=O)[C@H](CC(C)C)NC(=O)[C@H](CO)NC(C)=O)C(=O)OC (stereo partly drawn) (Ac-SLN[X1]I-OMe)
[1]
  IC50: 420 nM
[2]
  IC50: 420 nM

## CC[C@H](C)[C@H](NC(=O)[C@@H]1CCCN1C[C@H](O)[C@H](Cc1ccccc1)NC(=O)[C@H](CC(N)=O)NC(=O)OCc1ccccc1)C(=O)N[C@H](C(=O)OC)C(C)C
[1]
  IC50: 13 nM
[2]
  IC50: 13 nM

## CC[C@H](C)[C@H](NC(=O)C1CC2CCCCC2CN1C[C@@H](O)[C@H](Cc1ccccc1)NC(=O)[C@H](CC(N)=O)NC(=O)OCc1ccccc1)C(=O)N[C@H](C(=O)OC)C(C)C (stereo partly drawn)
[1]
  IC50: > 100 nM
[2]
  IC50: > 100 nM

## CC(C)(C)NC(=O)C1CC2CCCCC2CN1C[C@@H](O)[C@H](Cc1ccccc1)NC(=O)[C@H](CC(N)=O)NC(=O)OCc1ccccc1 (stereo partly drawn)
[1]
  IC50: < 2.7 nM
[2]
  IC50: < 2.7 nM

## CC[C@H](C)[C@H](NC(=O)[C@@H]1CCCN1C[C@@H](O)[C@H](Cc1ccccc1)NC(=O)[C@H](CC(N)=O)NC(=O)OCc1ccccc1)C(=O)N[C@H](C(=O)OC)C(C)C
[1]
  IC50: > 100 nM
[2]
  IC50: > 100 nM

## CC[C@H](C)[C@H](NC(=O)C1CC2CCCCC2CN1C[C@H](O)[C@H](Cc1ccccc1)NC(=O)[C@H](CC(N)=O)NC(=O)OCc1ccccc1)C(=O)N[C@H](C(=O)OC)C(C)C (stereo partly drawn)
[1]
  IC50: > 100 nM
[2]
  IC50: > 100 nM
